From US20040093169A1, “Method of designing molecular structure of enzyme inhibitor” (TOYO SUISAN KAISHA, LTD., priority 2000, published 2004)

Key:
DNA polymerase = conditions: reported by Ogawa et al., Jpn. J. Cancer Res. 89, 1154-1159, 1998; cited from earlier work
[1] = target: HIV reverse transcriptase (Human immunodeficiency virus type 1 group M subtype B, UniProt P03366); assay: Inhibitory activity on HIV reverse transcriptase; assay type: biochemical; conditions: compared with inhibitory activity on rat pol. β
Procedure: The confirmation of the inhibitory activity of nervonic acid on HIV reverse transcriptase was carried out.
Specifically, the inhibitory activity of nervonic acid on HIV reverse transcriptase was measured according to the method described in reference 8 listed below.

rat pol. β = rat pol. β (Rattus norvegicus, UniProt P06766); assay: Inhibitory activity on rat pol. β ([3H]-dTTP incorporation, poly(dA)/oligo(dT)12-18); assay type: biochemical; conditions: compared among fatty acids
Procedure: The activity of rat pol. β was measured according to the method described in reference 3 listed below, by using poly(dA)/oligo(dT)12-18 (template DNA) and [^3H]-dTTP (nucleotide) as substrates and measuring radiation of [^3H]-dTTP incorporated in the presence of nervonic acid of different concentrations.
FIG. 5 is a graph showing an inhibition curve. In FIG. 5, the vertical axis represents the activity of rat pol. β and the horizontal axis represents the concentration of nervonic acid.

Compound | inhibitor on DNA polymerase (DNA polymerase) | inhibitory activity on HIV reverse transcriptase (inhibition curve, FIG. 15) [1] | inhibition of rat pol. β (rat pol. β)
C[C@H](CCC(=O)O)[C@H]1CC[C@H]2[C@@H]3CC[C@@H]4C[C@H](O)CC[C@]4(C)[C@H]3CC[C@]12C [lithocholic acid, 3-α-hydroxy-5β-cholanoic acid] | known as inhibitors on DNA polymerase |  | 
CCCCCCCC/C=C\CCCCCCCCCCCCCC(=O)O [nervonic acid, cis-15-tetracosenoic acid] |  | substantially equal to the inhibitory activity of nervonic acid on rat pol. β | one of the fatty acids which most strongly inhibit rat pol. β
